Test results taken from US7897627B2, “Heteroaryl derivatives as orexin receptor antagonists” (Hoffmann-La Roche Inc., priority 2007, dated 2011).

Target: T1, human orexin-2 (hOX2) receptor (Homo sapiens, UniProt O43614)
T1 construct: expressed in transfected cells
T1 sequence (O43614 1-444): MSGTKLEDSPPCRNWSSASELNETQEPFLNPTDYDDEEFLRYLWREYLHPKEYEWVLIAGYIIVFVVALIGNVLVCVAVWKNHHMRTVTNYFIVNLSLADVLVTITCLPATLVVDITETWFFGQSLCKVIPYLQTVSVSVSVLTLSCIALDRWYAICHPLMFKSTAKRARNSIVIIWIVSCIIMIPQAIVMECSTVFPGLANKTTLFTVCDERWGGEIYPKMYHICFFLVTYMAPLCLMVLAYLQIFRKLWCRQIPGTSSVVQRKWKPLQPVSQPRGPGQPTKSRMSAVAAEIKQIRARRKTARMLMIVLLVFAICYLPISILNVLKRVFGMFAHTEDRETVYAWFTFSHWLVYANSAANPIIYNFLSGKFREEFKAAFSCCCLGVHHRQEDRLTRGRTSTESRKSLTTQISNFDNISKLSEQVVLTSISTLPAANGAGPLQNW
Test: Intracellular Ca2+ mobilization assay (FLIPR), CHO(dHFr-) cells expressing hOX2, orexin-A as agonist
Assay type: cell-based
Settings: antagonist Kb=IC50/(1+[A]/EC50); orexin-A at EC80; CHO(dHFr-)-OX2R cells; antagonist applied 25 min before agonist
In short: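 Cells loaded with 4 μM Fluo-4 AM (1 h, 37° C) in HBSS/20 mM HEPES/2.5 mM probenecid; antagonists (11 concentrations, 0.0001-10 μM) added 25 min at 37° C before orexin-A at its daily-determined EC80. Peak fluorescence minus basal fitted to Hill equation for IC50; Kb=IC50/(1+[A]/EC50).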

Row | Structure (SMILES) | Kb [µM]
1 | O=C(c1cnoc1-c1ccccc1)N1CC[C@@H](Nc2nc3ccc(Cl)cc3o2)C1 [Example 61, [(R)-3-(6-Chloro-benzooxazol-2-ylamino)-pyrrolidin-1-yl]-(5-phenyl-isoxazol-4-yl)-methanone] | 0.0054
2 | Cc1nc(C(=O)N2CC[C@@H](Nc3cnc4ccccc4n3)C2)c(-c2ccccc2)s1 [Example 189, (2-Methyl-5-phenyl-thiazol-4-yl)-[(R)-3-(quinoxalin-2-ylamino)-pyrrolidin-1-yl]-methanone] | 0.028
3 | O=C(c1ccccc1OC(F)(F)F)N1CC[C@@H](Nc2nc3ccc(Cl)cc3o2)C1 [Example 71, [(R)-3-(6-Chloro-benzooxazol-2-ylamino)-pyrrolidin-1-yl]-(2-trifluoromethoxy-phenyl)-methanone] | 0.0097
4 | Cc1noc(-c2ccccc2C(=O)N2CC[C@@H](Nc3cnc4cc(Cl)ccc4n3)C2)n1 [Example 178, [(R)-3-(6-Chloro-quinoxalin-2-ylamino)-pyrrolidin-1-yl]-[2-(3-methyl-[1,2,4]oxadiazol-5-yl)-phenyl]-methanone] | 0.0244
5 | Cc1onc(-c2ccccc2)c1C(=O)N1CC[C@@H](Nc2nc3ccc(F)cc3s2)C1 [Example 116, [(R)-3-(6-Fluoro-benzothiazol-2-ylamino)-pyrrolidin-1-yl]-(5-methyl-3-phenyl-isoxazol-4-yl)-methanone] | 0.0261
6 | Cc1ccc(C(F)(F)F)c(C(=O)N2CC[C@@H](Nc3nc4ccc(F)cc4o3)C2)c1 [Example 159, [(R)-3-(6-Fluoro-benzooxazol-2-ylamino)-pyrrolidin-1-yl]-(5-methyl-2-trifluoromethyl-phenyl)-methanone] | 0.0205
7 | COc1cccc(OC)c1C(=O)N1CC[C@@H](Nc2nc3ccc(Cl)cc3s2)C1 [Example 25, [(R)-3-(6-Chloro-benzothiazol-2-ylamino)-pyrrolidin-1-yl]-(2,6-dimethoxy-phenyl)-methanone] | 0.0163
8 | CCOc1cccc(OCC)c1C(=O)N1CC[C@@H](Nc2nc3ccc(Cl)cc3o2)C1 [Example 73, [(R)-3-(6-Chloro-benzooxazol-2-ylamino)-pyrrolidin-1-yl]-(2,6-diethoxy-phenyl)-methanone] | 0.0012
9 | CCc1ccccc1C(=O)N1CC[C@@H](Nc2nc3ccc(Cl)cc3o2)C1 [Example 47, [(R)-3-(6-Chloro-benzooxazol-2-ylamino)-pyrrolidin-1-yl]-(2-ethyl-phenyl)-methanone] | 0.0377
10 | O=C(c1ccccc1OC(F)(F)F)N1CC[C@@H](Nc2nc3ccc(F)cc3s2)C1 [Example 113, [(R)-3-(6-Fluoro-benzothiazol-2-ylamino)-pyrrolidin-1-yl]-(2-trifluoromethoxy-phenyl)-methanone] | 0.0217
